Where “and” joins values, the source holds several entries; their conditions need not be identical. Equal values may be shown once. Inconclusive results and toxic doses are left out.
Tested on: P388 leukemia ip, CD2F1 mice, survival T/C
Test: NCI In Vivo Anticancer Drug Screen. Data for tumor model P388 Leukemia (intraperitoneal) in CD2F1 (CDF1) mice
Settings: endpoint: median survival time, higher = longer survival
In short: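 Mice carrying the transplanted tumor received test compound or vehicle. Survival was recorded in each group, and the value is the treated-group measurement divided by that of the vehicle-treated control group.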

[1] = dose: 50.0 mg/kg/injection, schedule: Q01DX005 (ip), vehicle: saline with Tween-80
[2] = dose: 100.0 mg/kg/injection, schedule: Q01DX005 (ip), vehicle: saline with Tween-80
[3] = dose: 200.0 mg/kg/injection, schedule: Q01DX005 (ip), vehicle: saline with Tween-80
[4] = dose: 50.0 mg/kg/injection, schedule: Q01DX009 (ip), vehicle: saline with Tween-80
[5] = dose: 100.0 mg/kg/injection, schedule: Q01DX009 (ip), vehicle: saline with Tween-80
[6] = dose: 200.0 mg/kg/injection, schedule: Q01DX009 (ip), vehicle: saline with Tween-80

CCC(C)C(NC(=O)C(CCCCN)N(C(=O)OCc1ccccc1)C(=O)OCc1ccccc1)C(=O)O (centres undefined)
T/C [1]: 99 % of control
T/C [2]: 90 % of control
T/C [3]: 94 % of control

Cc1cc(C)n2ncc(Br)c2n1
T/C [1]: 100 % of control
T/C [2]: 100 % of control
T/C [3]: 94 % of control

CNc1ccc(N=Nc2ccncc2C)cc1C
T/C (dose: 6.25 mg/kg/injection, schedule: Q01DX009 (ip), vehicle: DMSO): 89 % of control
T/C (dose: 12.5 mg/kg/injection, schedule: Q01DX009 (ip), vehicle: DMSO): 88 % of control
T/C (dose: 25.0 mg/kg/injection, schedule: Q01DX009 (ip), vehicle: DMSO): 87 % of control

Nc1nc2c(c(-c3nc(N)nc4c3CCc3ccccc3-4)n1)CCc1ccccc1-2
T/C (dose: 60.0 mg/kg/injection, schedule: Q01DX005 (ip), vehicle: saline): 105 % of control
T/C (dose: 120.0 mg/kg/injection, schedule: Q01DX005 (ip), vehicle: saline): 99 % of control
T/C (dose: 240.0 mg/kg/injection, schedule: Q01DX005 (ip), vehicle: saline): 107 % of control

NC(=O)C1CCN(Cc2c[nH]c3ccccc23)CC1
T/C (dose: 25.0 mg/kg/injection, schedule: Q01DX009 (ip), vehicle: saline with Tween-80): 104 % of control
T/C [4]: 100 % of control
T/C [5]: 104 % of control
T/C [6]: 102 % of control

CCOC(=O)C(Cc1ccc(O)cc1)NS(=O)(=O)c1ccc(C)cc1 (centres undefined)
T/C [4]: 98 % of control
T/C [5]: 100 % of control
T/C [6]: 108 % of control

Nc1nc(N)nc(N(CCO)CCO)n1
T/C (dose: 50.0 mg/kg/injection, schedule: Q01DX005 (ip), vehicle: Klucel (hydroxypropylcellulose) (HPC)): 111 % of control
T/C (dose: 100.0 mg/kg/injection, schedule: Q01DX005 (ip), vehicle: Klucel (hydroxypropylcellulose) (HPC)): 102 % of control
T/C (dose: 200.0 mg/kg/injection, schedule: Q01DX005 (ip), vehicle: Klucel (hydroxypropylcellulose) (HPC)): 106 % of control

C[S+]1CCC(C(=O)[O-])N1 (centres undefined)
T/C (dose: 50.0 mg/kg/injection, schedule: Q01DX005 (ip), vehicle: saline): 101 % of control
T/C (dose: 100.0 mg/kg/injection, schedule: Q01DX005 (ip), vehicle: saline): 98 % of control
T/C (dose: 200.0 mg/kg/injection, schedule: Q01DX005 (ip), vehicle: saline): 98 % of control

CCC1=C[C@H]2CN(CCc3c([nH]c4ccccc34)[C@@](C(=O)OC)(c3cc4c(cc3OC)N(C)[C@H]3[C@@](O)(C(=O)OC)[C@H](OC(C)=O)[C@]5(CC)C=CCN6CC[C@]43[C@@H]65)C2)C1
T/C (dose: 0.06 mg/kg/injection, schedule: Q01DX009 (ip), vehicle: water): 109 % of control
T/C (dose: 0.13 mg/kg/injection, schedule: Q01DX009 (ip), vehicle: water): 162 % of control
T/C (dose: 0.2 mg/kg/injection, schedule: Q01DX009 (ip), vehicle: saline): 151 % of control
T/C (dose: 0.25 mg/kg/injection, schedule: Q01DX009 (ip), vehicle: water): 106 % of control
T/C (dose: 0.4 mg/kg/injection, schedule: Q01DX009 (ip), vehicle: saline): 163 % of control
T/C (dose: 0.5 mg/kg/injection, schedule: Q04DX003 (ip), vehicle: water): 151 % of control
T/C (dose: 0.8 mg/kg/injection, schedule: Q01DX009 (ip), vehicle: saline): 178 % of control
T/C (dose: 1.0 mg/kg/injection, schedule: Q04DX003 (ip), vehicle: water): 169 % of control
T/C (dose: 2.0 mg/kg/injection, schedule: Q04DX003 (ip), vehicle: water): 205 % of control
T/C (dose: 4.0 mg/kg/injection, schedule: Q04DX003 (ip), vehicle: water): 241 % of control
T/C (dose: 8.0 mg/kg/injection, schedule: Q04DX003 (ip), vehicle: water): 87 % of control

CN(C)CCCn1c2c(c3ccccc31)CCCCC2
T/C [1]: 97 % of control
T/C [2]: 101 % of control
T/C [3]: 94 % of control

Oc1ccc(SCc2ccc(NCc3ccccc3)cc2)cc1
T/C [4]: 113 % of control and 117 % of control
T/C [5]: 119 % of control

O=C(O)c1ccccc1N=N/C(=N\Nc1ccccc1C(=O)O)c1cccc2cccnc12
T/C (dose: 100.0 mg/kg/injection, schedule: Q04DX003 (ip), vehicle: saline with Tween-80): 103 % of control
T/C (dose: 200.0 mg/kg/injection, schedule: Q04DX003 (ip), vehicle: saline with Tween-80): 106 % of control
T/C (dose: 400.0 mg/kg/injection, schedule: Q04DX003 (ip), vehicle: saline with Tween-80): 97 % of control

From PubChem BioAssay AID330 (DTP/NCI, 2004)
